Measurements taken from US20250213654A1, “PEPTIDES AND METHODS FOR USE IN TREATING PAIN” (TAFALGIE THERAPEUTICS, priority 2022, published 2025).

Key:
[1] = test system: Spared Nerve Injury (SNI) model of neuropathic pain; assay: Spared Nerve Injury (SNI) model of neuropathic pain, Von Frey up-down mechanical threshold; type: in vivo, mice; details: SNI day 14, per os, 30 μg/mL solution in HPMC vehicle; peptides significant as soon as 1 hour (p value<0.01)
[2] = test system: spinal lamina II interneurons; details: spinal lamina II interneurons (WO2014180853); cited from earlier work
[3] = test system: injury-induced mechanical hypersensitivity; details: cited from earlier work

## TAFA4 FL: human TAFA-4 full length mature protein (SEQ ID NO: 5) of 105 amino acid residues
[1]
  antalgic effect (reversal of mechanical threshold): did not show significant antalgic effect
[2]
  effect on nerve injury-induced neuronal sensitization: can reverse nerve injury-induced neuronal sensitization of the spinal lamina II interneurons
[3]; intrathecal injection (Delfini et al., 2013)
  effect on prolonged nerve injury-induced mechanical hypersensitivity of TAFA-4 gene deleted mice: reversed
[3]; male and female mice, intrathecal and subcutaneous administration (WO2014180853)
  effect on mechanical hypersensitivity: reverses inflammatory, postoperative and nerve injury-induced mechanical hypersensitivity
